Active and inactive are the calls of the source. No cut-off for these calls is given here. Non-standard residues stand in square brackets, D forms with d. Residues, ends and D or L forms follow the SMILES beside them. *: point of attachment. Biotin = O=C1N[C@H]2[C@H](CS[C@H]2CCCCC(=O)*)N1; Lys(Me3) = C[N+](C)(C)CCCC[C@H](N)C(=O)O; Benzoyl(4-Br) = O=C(c1ccc(Br)cc1)*
Key:
[1] = target: T1, Chromobox protein homolog 6 (Homo sapiens) (UniProt O95503); assay: Binding affinity to recombinant human CBX6 by microarray based assay
T1 sequence (whole entry): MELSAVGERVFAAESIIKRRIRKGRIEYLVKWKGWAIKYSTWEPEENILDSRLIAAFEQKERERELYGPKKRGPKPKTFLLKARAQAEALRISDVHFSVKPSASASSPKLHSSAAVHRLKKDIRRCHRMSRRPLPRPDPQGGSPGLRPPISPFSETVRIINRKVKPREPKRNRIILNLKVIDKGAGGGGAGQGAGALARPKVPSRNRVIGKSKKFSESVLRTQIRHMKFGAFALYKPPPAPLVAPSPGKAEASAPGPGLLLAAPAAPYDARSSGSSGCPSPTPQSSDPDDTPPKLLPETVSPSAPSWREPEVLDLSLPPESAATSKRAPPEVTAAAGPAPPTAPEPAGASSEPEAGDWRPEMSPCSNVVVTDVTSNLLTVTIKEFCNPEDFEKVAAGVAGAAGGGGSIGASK

[2] = target: T2, Chromobox protein homolog 2 (Homo sapiens) (UniProt Q14781); assay: Binding affinity to recombinant human CBX2 by microarray based assay
T2 sequence (whole entry): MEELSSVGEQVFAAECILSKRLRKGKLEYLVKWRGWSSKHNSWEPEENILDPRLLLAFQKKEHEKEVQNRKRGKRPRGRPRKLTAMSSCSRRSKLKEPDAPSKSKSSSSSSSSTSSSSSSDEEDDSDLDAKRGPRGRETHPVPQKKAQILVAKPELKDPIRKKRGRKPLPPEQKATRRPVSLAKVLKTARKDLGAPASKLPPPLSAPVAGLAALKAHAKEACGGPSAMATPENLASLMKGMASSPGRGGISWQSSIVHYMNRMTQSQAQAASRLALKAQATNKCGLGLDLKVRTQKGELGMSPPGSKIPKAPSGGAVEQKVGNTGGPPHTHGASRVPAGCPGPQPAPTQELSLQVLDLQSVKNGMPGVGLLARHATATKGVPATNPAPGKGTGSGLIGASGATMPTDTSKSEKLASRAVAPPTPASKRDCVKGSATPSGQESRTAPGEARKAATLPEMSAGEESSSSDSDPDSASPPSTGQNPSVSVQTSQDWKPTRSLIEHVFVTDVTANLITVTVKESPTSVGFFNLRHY

Activity [1]: Active | Activity [2]: Active
SMILES: CC(C)C[C@H](NC(=O)[C@H](CO)NC(=O)[C@H](CCCC[N+](C)(C)C)NC(=O)[C@H](Cc1ccc(O)cc1)NC(=O)[C@H](C)NC(=O)[C@H](Cc1ccccc1)NC(=O)c1ccc(Br)cc1)C(=O)N[C@@H](CCCCNC(=O)CCCC[C@@H]1SC[C@@H]2NC(=O)N[C@@H]21)C(N)=O ({Benzoyl(4-Br)}-FAY[Lys(Me3)]SLK(Biotin)-NH2)
